Converted amounts (≈) assume the structure as drawn.

The source of these data is article PMC8102414 (Heliyon, 2021).

Assay [1] concerns advanced glycation end products (AGEs). In words: Glycation inhibition assay. In kind it is biochemical. Conditions: Inactive at >100 μM; for IC50: read-out: Glycation inhibition (IC50).
Assay [2] has as its system Enterococcus faecalis ATCC 29212. Description: Antimicrobial MIC, 2-fold serial dilution. The following applies: for MIC (μg/mL) EF: Gram-positive, Enterococcus faecalis (ATCC 29212), Inactive at >128 μg/mL.
Assay [3] has as its system Staphylococcus aureus ATCC 25923. In words: Antimicrobial MIC, 2-fold serial dilution. The following applies: for MIC: Staphylococcus aureus, ATCC25923, read-out: MIC (μg/mL) SA.
For assay [4], the system named is Shigella flexneri DMST 4423. Description: Antimicrobial MIC, 2-fold serial dilution. The following applies: for MIC: Shigella flexneri, DMST4423, read-out: MIC (μg/mL) SF; for MIC (μg/mL) SF: Gram-negative, Shigella flexneri (DMST 4423), Inactive at >128 μg/mL.
Assay [5] deals with Salmonella typhi DMST 22842. In words: microbe, parasite or virus in culture. In kind it is cell-based. Conditions: for MIC (μg/mL) ST: Gram-negative, Salmonella typhi (DMST 22842), Inactive at >128 μg/mL.
Assay [6] deals with Salmonella typhimurium DMST 562. In words: Antimicrobial MIC, 2-fold serial dilution. Conditions: Gram-negative; Salmonella typhimurium (DMST 562); Inactive at >128 μg/mL.
Assay [7] relates to Candida albicans ATCC 10231. Description: Antimicrobial MIC, 2-fold serial dilution. The following applies: for MIC (μg/mL) CA: Fungi, Candida albicans (ATCC 10231), Inactive at >128 μg/mL.
In assay [8] the test system is Pseudomonas aeruginosa ATCC 10145. In words: Antimicrobial MIC, 2-fold serial dilution. Conditions: Pseudomonas aeruginosa, ATCC10145, read-out: MIC (μg/mL) PA.
Assay [9] deals with Streptococcus pyogenes ATCC, 19615. In words: Antimicrobial MIC, 2-fold serial dilution. The following applies: Gram-positive; Streptococcus pyogenes (ATCC, 19615); Inactive at >128 μg/mL.
Assay [10] has as its system Escherichia coli TISTR 780. In words: Antimicrobial MIC, 2-fold serial dilution. The following applies: for MIC: Escherichia coli, TISTR780, read-out: MIC (μg/mL) EC.
For the next assay, the system named is RAW 264.7 cells. In words: Nitric oxide production inhibition assay. Conditions: for NO Inhibition (IC50, μM): LPS-stimulated NO production in RAW 264.7 cells, Inactive at >100 μM. In kind it is cell-based.
Assay [11] has as its system methicillin resistant Staphylococcus aureus NPRC 001R. In words: Antimicrobial MIC, 2-fold serial dilution. The following applies: Gram-positive; Methicillin Resistant Staphylococcus aureus (NPRC 001R); Inactive at >128 μg/mL.
The next assay concerns 3T3-L1 adipocyte cells. Description: Glucose consumption assay. The assay is classed as cell-based. The following applies: induction of glucose consumption, 3T3-L1 adipocyte cells; Inactive at >100 μM.
In assay [12] the test system is Micrococcus luteus DMST 15503. In words: Antimicrobial MIC, 2-fold serial dilution. The following applies: Gram-positive; Micrococcus luteus (DMST 15503); Inactive at >128 μg/mL.

On to `O=C1C[C@@H](c2ccccc2)Oc2cc(O)cc(O)c21` [Compound 15, pinocembrin], for which the IC50 (in general, the midpoint of a concentration-inhibition curve) in [1] worked out at 83.1 ± 0.94 µM. For the same molecule, in assay [2], the “MIC (μg/mL) EF” value is reported as “Inactive”. For the same molecule, the MIC in [3], in assay [4], in [8] and in assay [10] was 128 µg/mL (≈ 499 µM) each time. Besides, the “MIC (μg/mL) ST” value in assay [5] is listed as “Inactive”. Moreover, the “MIC (μg/mL) STR” value in assay [6] was “Inactive”. The “MIC (μg/mL) CA” value in assay [7] is “Inactive”. In addition, the “MIC (μg/mL) SP” value in [9] is “Inactive”. Also, the “NO Inhibition (IC50, μM)” value in the assay with RAW 264.7 cells is “Inactive”. Moreover, the “MIC (μg/mL) MRSA” value in assay [11] is given as “Inactive”. Moreover, in the assay on 3T3-L1 adipocyte cells, the “Glucose consumption (IC50, μM)” value is on record as “Inactive”. Also, the “MIC (μg/mL) MT” value in assay [12] is reported as “Inactive”.

With `O=c1c(O)c(-c2ccc(O)c(O)c2)oc2cc(O)cc(O)c12` [Quercetin, quercetin, reference compound], the IC50 in assay [1] is 59.1 ± 0.78 µM.

Turning to `O=c1oc2cc(O)ccc2c2oc3cc(O)ccc3c12` [Compound 6, coumestrol], the “Glycation inhibition (IC50, μM)” value in assay [1] is on record as “Inactive”. In addition, the MIC in assay [2] (Enterococcus faecalis, ATCC29212, read-out: MIC (μg/mL) EF) turned out to be 128 µg/mL (≈ 477 µM); in assay [4], 128 µg/mL (≈ 477 µM); in [5] (Salmonella enterica, TYPHI, read-out: MIC (μg/mL) ST) it was 128 µg/mL (≈ 477 µM); in [7] (Candida albicans, ATCC10231, read-out: MIC (μg/mL) CA), 128 µg/mL (≈ 477 µM); in assay [8] it was 128 µg/mL (≈ 477 µM); in assay [10] it was 128 µg/mL (≈ 477 µM). Besides, in [3] (Gram-positive, Staphylococcus aureus (ATCC 25923), Inactive at >128 μg/mL), the “MIC (μg/mL) SA” value was “Inactive”. For the same molecule, the “MIC (μg/mL) STR” value in [6] is “Inactive”. The “MIC (μg/mL) SP” value in assay [9] is on record as “Inactive”. The “NO Inhibition (IC50, μM)” value in the assay with RAW 264.7 cells is “Inactive”. In addition, in the assay on 3T3-L1 adipocyte cells, the “Glucose consumption (IC50, μM)” value is reported as “Inactive”. Besides, in assay [12], the “MIC (μg/mL) MT” value is “Inactive”.

For `O=c1c(O)c(-c2ccccc2)oc2ccc(O)cc12` [Compound 17, 3,6-dihydroxyflavone], the “Glycation inhibition (IC50, μM)” value in assay [1] is on record as “Inactive”. In addition, the “MIC (μg/mL) EF” value in assay [2] is recorded as “Inactive”. Besides, the MIC in assay [3] and in assay [8] was 128 µg/mL (≈ 503 µM) each time. For the same molecule, the “MIC (μg/mL) SF” value in [4] is listed as “Inactive”. In addition, in assay [5], the “MIC (μg/mL) ST” value was “Inactive”. Also, the “MIC (μg/mL) STR” value in assay [6] is on record as “Inactive”. Moreover, the “MIC (μg/mL) CA” value in [7] is listed as “Inactive”. The “MIC (μg/mL) SP” value in assay [9] is “Inactive”. Also, in assay [10] (Gram-negative, Escherichia coli (TISTR 780), Inactive at >128 μg/mL), the “MIC (μg/mL) EC” value is reported as “Inactive”. The “NO Inhibition (IC50, μM)” value in the assay on RAW 264.7 cells was “Inactive”. Moreover, in assay [11], the “MIC (μg/mL) MRSA” value was “Inactive”. For the same molecule, in the assay on 3T3-L1 adipocyte cells, the “Glucose consumption (IC50, μM)” value is “Inactive”. In addition, the “MIC (μg/mL) MT” value in [12] was “Inactive”.

Take `O=c1c(O)c(-c2ccc(O)cc2)oc2ccc(O)cc12` [Compound 16, 3,6,4′-trihydroxyflavone]: the “Glycation inhibition (IC50, μM)” value in assay [1] was “Inactive”. Moreover, the “MIC (μg/mL) EF” value in assay [2] is given as “Inactive”. The MIC in assay [3], in assay [8] and in assay [10] was 128 µg/mL (≈ 474 µM) throughout. In assay [4], the “MIC (μg/mL) SF” value was “Inactive”. Further, the “MIC (μg/mL) ST” value in [5] was “Inactive”. Besides, the “MIC (μg/mL) STR” value in assay [6] is on record as “Inactive”. Moreover, the “MIC (μg/mL) CA” value in assay [7] is recorded as “Inactive”. For the same molecule, in assay [9], the “MIC (μg/mL) SP” value is “Inactive”. Moreover, in the assay with RAW 264.7 cells (Mus musculus, RAW264.7, read-out: NO Inhibition (IC50, μM)), the IC50 is 96.2 ± 1.61 µM. Also, the “MIC (μg/mL) MRSA” value in assay [11] is “Inactive”. In addition, the “Glucose consumption (IC50, μM)” value with 3T3-L1 adipocyte cells was “Inactive”. Besides, in assay [12], the “MIC (μg/mL) MT” value is “Inactive”.
